# pIC50: −log10 of the molar value.
# How the values were obtained:
# [1] = target: T1, IRAK-1 (Homo sapiens, UniProt P51617); assay: Test for the inhibition of IRAK1 (autophosphorylation, flashplate); type: biochemical; conditions: enzyme
# T1 construct: His6 (N); Dr.Jaekel Pool B, 232Y08C1.IRK
# Method: (§1) The experimental batches are carried out in a flashplate system with 384 wells/microtitre plate. In each case, in order to investigate the inhibition of the autophosphorylation activity of IRAK1, the IRAK1 sample His6-IRAK1 (5.1 nM), 1 μM ATP (with 0.25 μCi of ^33P-ATP/well) and the test substance in 50 μl of conventional experimental solution per well are incubated at 22° C. for 180 min. The test substances are employed in corresponding concentrations (if desired in a dilution series). The control is carried out without test substance. The reaction is stopped using standard methods and washed. The activity of the kinase is measured via the incorporated radioactivity in top count. In order to determine the non-specific kinase reaction (blank value), the experimental batches are carried out in the presence of 1 μM staurosporin. The radioactivity (decompositions per minute) of the blank value (no use of test substance in the presence of 1 μM staurosporin) is subtracted from all other radioactivity values. The controls (kinase activity without test substance) are set equal to 100 percent and all other radioactivity values (after subtracting the blank value) are expressed set in relation thereto (for example in % of the control). IC50 values (50% inhibition) are determined with the aid of statistics programs, such as, for example, RS1.
# [2] = target: T2, IRAK-4 (Homo sapiens, UniProt Q9NWZ3); assay: Test for the inhibition of IRAK4 (flashplate, 33P-ATP); type: biochemical; conditions: enzyme
# T2 construct: His6 (N); Dr.Jaekel
# T2 sequence (Q9NWZ3 1-460): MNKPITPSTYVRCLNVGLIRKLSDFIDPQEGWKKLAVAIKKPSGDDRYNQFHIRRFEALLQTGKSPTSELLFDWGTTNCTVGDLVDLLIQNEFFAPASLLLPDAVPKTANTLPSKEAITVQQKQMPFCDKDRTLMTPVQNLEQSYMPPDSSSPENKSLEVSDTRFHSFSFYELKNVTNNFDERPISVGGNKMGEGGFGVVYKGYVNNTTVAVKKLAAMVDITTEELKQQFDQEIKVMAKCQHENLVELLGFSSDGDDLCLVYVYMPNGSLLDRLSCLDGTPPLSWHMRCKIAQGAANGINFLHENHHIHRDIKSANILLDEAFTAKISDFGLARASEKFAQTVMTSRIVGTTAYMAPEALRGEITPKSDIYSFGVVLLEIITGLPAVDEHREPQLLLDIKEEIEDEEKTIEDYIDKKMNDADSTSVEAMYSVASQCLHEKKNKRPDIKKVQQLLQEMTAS
# Method: as §1, with “case,” for “case, in order to investigate”, “the IRAK4 sample His6-IRAK4 (7.3 nM),” for “the inhibition of”, “the biotinylated substrate peptide STK substrate 1-biotin (Cisbio Bioassays, France) (300” for “the autophosphorylation activity of IRAK1, the IRAK1 sample His6-IRAK1 (5.1”, “nM), 10” for “nM), 1”
# [3] = target: T2, IRAK-4; assay: IC50 IRAK-4 (cell); type: cell-based
# [4] = target: T3, PDK1 (Homo sapiens, UniProt O15530); assay: Test for the inhibition of PDK1 (flashplate, 33P-ATP); type: biochemical; conditions: enzyme
# T3 construct: His6 (N)
# T3 sequence (O15530 51-556 limits assumed): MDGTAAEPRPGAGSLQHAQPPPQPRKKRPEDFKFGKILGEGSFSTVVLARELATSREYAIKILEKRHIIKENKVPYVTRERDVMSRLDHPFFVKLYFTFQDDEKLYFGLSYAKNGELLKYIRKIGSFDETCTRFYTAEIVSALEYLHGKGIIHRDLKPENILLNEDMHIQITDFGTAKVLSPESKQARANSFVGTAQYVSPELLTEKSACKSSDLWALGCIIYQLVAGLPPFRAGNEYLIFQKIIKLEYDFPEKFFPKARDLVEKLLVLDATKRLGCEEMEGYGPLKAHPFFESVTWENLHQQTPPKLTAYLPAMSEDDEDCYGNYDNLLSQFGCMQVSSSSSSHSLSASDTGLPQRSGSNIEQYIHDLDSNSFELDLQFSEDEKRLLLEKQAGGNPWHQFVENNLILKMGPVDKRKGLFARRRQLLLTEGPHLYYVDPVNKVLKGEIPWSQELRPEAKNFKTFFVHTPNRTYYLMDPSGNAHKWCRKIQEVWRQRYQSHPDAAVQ
# Method: The experimental batches are carried out in a flashplate system with 384 wells/microtitration plate.
# In each case, the PDK1 sample His6-PDK1(1-50)(3.4 nM), the PDK1 substrate biotin-bA-bA-[…] (400 nM), 4 μM ATP (with 0.2 μCi of ^33P-ATP/well) and the test substance in 50 μl of conventional experimental solution per well are incubated at 30° C. for 60 min. The test substances are employed in corresponding concentrations (if desired in a dilution series). The control is carried out without test substance. The reaction is stopped using standard methods and washed. The activity of the kinase is measured via the incorporated radioactivity in top count. In order to determine the non-specific kinase reaction (blank value), the experimental batches are carried out in the presence of 100 nM staurosporin.
# The radioactivity (decompositions per minute) of the blank value (no use of test substance in the presence of staurosporin) is subtracted from all other radioactivity values. The controls (kinase activity without test substance) are set equal to 100 percent and all other radioactivity values (after subtracting the blank value) are expressed set in relation thereto (for example in % of the control).
# IC50 values (50% inhibition) are determined with the aid of statistics programmes, such as, for example, RS1.
# [5] = target: T4, PDK1 (Homo sapiens, UniProt O15530); assay: IC50 PDK1 (cell); type: cell-based
# T4 construct: endogenous in cells; host or cells: commercially available colon carcinoma, ovary, prostate or breast cell lines (none named)
# T4 sequence (O15530 1-556): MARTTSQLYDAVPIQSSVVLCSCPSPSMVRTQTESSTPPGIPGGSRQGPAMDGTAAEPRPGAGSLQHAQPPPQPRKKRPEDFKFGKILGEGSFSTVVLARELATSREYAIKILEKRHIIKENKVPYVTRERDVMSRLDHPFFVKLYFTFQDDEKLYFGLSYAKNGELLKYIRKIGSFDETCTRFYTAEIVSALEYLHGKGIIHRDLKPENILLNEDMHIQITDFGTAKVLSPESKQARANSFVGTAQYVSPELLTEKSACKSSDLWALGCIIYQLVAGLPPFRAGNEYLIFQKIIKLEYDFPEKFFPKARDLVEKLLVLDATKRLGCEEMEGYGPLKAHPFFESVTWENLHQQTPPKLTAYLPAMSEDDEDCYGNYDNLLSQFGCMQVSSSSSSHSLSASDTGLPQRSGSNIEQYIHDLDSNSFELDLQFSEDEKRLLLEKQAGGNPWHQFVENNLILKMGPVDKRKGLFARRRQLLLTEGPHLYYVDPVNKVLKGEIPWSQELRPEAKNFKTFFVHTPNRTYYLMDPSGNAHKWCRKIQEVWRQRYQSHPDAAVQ
# Method: The cells are sown in a suitable cell density in microtitre plates (96-well format) and the test substances are added in the form of a concentration series. After four further days of cultivation in serum-containing medium, the tumour cell proliferation/tumour cell vitality can be determined by means of an Alamar Blue test system. A defined number of cells (for example 2000 cells) per culture/well in a volume of 180 μl of culture medium are sown in microtitre plates (96 well cell-culture plates) using a multichannel pipette. The cells are subsequently cultivated in a CO2 incubator (37° C. and 10% CO2). The test substances are dissolved, for example, in DMSO and subsequently employed in corresponding concentration (if desired in a dilution series) in the cell culture medium. The dilution steps can be adapted depending on the efficiency of the active ingredients and the desired spread of the concentrations. Cell culture medium is added to the test substances in corresponding concentrations. The addition of the test substances to the cells can take place on the same day as the sowing of the cells. To this end, in each case 20 μl of substance solution from the predilution plate are added to the cultures/wells. The cells are cultivated for a further 4 days at 37° Celsius and 10% CO2. In each case, 20 μl of Alamar Blue reagent are added per well, and the microtitre plates are incubated, for example, for a further seven hours in a CO2 incubator (at 37° C. and 10% CO2). The plates are measured in a reader with a fluorescence filter at a wavelength of 540 nm. The plates can be shaken gently immediately before the measurement. The absorbance value of the medium control (no cells and test substances used) is subtracted from all other absorbance values. The controls (cells without test substance) are set equal to 100 percent, and all other absorbance values are set in relation thereto (for example in % of control): Calculation: 100*(value with cells and test substance−value of medium control)/(value with cells−value of medium control) IC50 values (50% inhibition) are determined with the aid of statistics programs, such as, for example, RS1.
# T1 sequence (P51617 whole entry, species assumed): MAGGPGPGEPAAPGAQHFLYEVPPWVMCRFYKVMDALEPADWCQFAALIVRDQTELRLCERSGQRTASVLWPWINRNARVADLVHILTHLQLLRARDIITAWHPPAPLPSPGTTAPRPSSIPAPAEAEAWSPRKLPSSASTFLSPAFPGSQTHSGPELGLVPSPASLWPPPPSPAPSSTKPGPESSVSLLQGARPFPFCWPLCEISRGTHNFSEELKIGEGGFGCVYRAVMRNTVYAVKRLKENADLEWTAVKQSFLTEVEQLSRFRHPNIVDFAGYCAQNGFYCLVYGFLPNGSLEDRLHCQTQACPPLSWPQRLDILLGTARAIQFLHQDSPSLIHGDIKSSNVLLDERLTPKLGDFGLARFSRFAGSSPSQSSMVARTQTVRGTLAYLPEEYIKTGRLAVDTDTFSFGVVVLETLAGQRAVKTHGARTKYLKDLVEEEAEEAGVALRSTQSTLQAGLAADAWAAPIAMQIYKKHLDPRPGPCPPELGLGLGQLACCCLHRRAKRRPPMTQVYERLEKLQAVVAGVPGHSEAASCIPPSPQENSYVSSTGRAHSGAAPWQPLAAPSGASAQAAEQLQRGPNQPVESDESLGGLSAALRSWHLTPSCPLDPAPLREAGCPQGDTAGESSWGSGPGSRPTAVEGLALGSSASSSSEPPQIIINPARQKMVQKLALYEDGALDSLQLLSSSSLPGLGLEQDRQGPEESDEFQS
pIC50 [1],pIC50 [2],pIC50 [3],pIC50 [4],pIC50 [5],Compound
7.00 to 9.00,7.00 to 9.00,5.00 to 7.00,–,–,"COc1ccc2nc(-c3cc(-c4cnn(C(C)C)c4)cnc3N)[nH]c2c1 [Compound A107, 5-(1-Isopropyl-1H-pyrazol-4-yl)-3-(6-methoxy-1H-benzimidazol-2-yl)pyridin-2-ylamine]"
5.00 to 7.00,5.00 to 7.00,5.00 to 7.00,–,–,CCCn1cc(-c2cnc(N)c(-c3nc4ccccc4[nH]3)c2)cn1 [Compound A44]
–,–,–,7.00 to 9.00,5.00 to 7.00,"CCC1CC(=O)NN=C1c1ccc2[nH]c(-c3cc(-c4cnn(C)c4)cnc3N)nc2c1 (stereo not drawn) [Compound A4, 6-{2-[2-Amino-5-(1-methyl-1H-pyrazol-4-yl)-pyridin-3-yl]-1H-benzimidazol-5-yl}-5-ethyl-4,5-dihydro-2H-pyridazin-3-one]"
–,–,–,7.00 to 9.00,5.00 to 7.00,"Cn1cc(-c2cnc(N)c(-c3nc4c(O)cccc4[nH]3)c2)cn1 [Compound A102, 2-[2-Amino-5-(1-methyl-1H-pyrazol-4-yl)pyridin-3-yl]-1H-benzimidazol-4-ol]"
–,–,–,7.00 to 9.00,< 5.00,CN(C)c1ccc2nc(-c3cc(-c4cnn(C)c4)cnc3N)[nH]c2c1 [Compound A68]
–,–,–,7.00 to 9.00,5.00 to 7.00,COCCn1cc(-c2cnc(N)c(-c3nc4cc(C5=NNC(=O)CC5C)ccc4[nH]3)c2)cn1 (stereo not drawn) [Compound A12]
–,–,–,7.00 to 9.00,5.00 to 7.00,"CC1CC(=O)NN=C1c1ccc2[nH]c(-c3cc(-c4cnn(C(C)C)c4)cnc3N)nc2c1 (stereo not drawn) [Compound A11, 6-{2-[2-Amino-5-(1-isopropyl-1H-pyrazol-4-yl)pyridin-3-yl]-1H-benzimidazol-5-yl}-5-methyl-4,5-dihydro-2H-pyridazin-3-one]"
–,–,–,7.00 to 9.00,< 5.00,"C[C@H]1CC(=O)NN=C1c1ccc2nc(-c3cc(-c4cnn(C)c4)cnc3N)[nH]c2c1 (single isomer, unassigned) [Compound A3]"
–,–,–,7.00 to 9.00,5.00 to 7.00,CC(C)(C)c1ccc2nc(-c3cc(-c4cnn(C5CCNCC5)c4)cnc3N)[nH]c2c1 [Compound A53]
–,–,–,7.00 to 9.00,5.00 to 7.00,Nc1ncc(-c2cnn(C3CCNCC3)c2)cc1-c1nc2cc(OC(F)(F)F)ccc2[nH]1 [Compound A67]
–,–,–,7.00 to 9.00,< 5.00,"CC1CC(=O)NN=C1c1ccc2nc(-c3cc(-c4cnn(CCO)c4)cnc3N)[nH]c2c1 (stereo not drawn) [Compound A29, 6-(2-{2-amino-5-[1-(2-hydroxyethyl)-1H-pyrazol-4-yl]pyridin-3-yl}-3H-benzimidazol-5-yl)-5-methyl-4,5-dihydro-2H-pyridazin-3-one]"
